From US20140179681A1, “METHODS AND COMPOSITIONS OF TARGETED DRUG DEVELOPMENT” (priority 2010, published 2014)
Structures can show the parent of a compound that is named as a salt. Where two headings read alike, the source gives them in different places.

Columns and labels:
EGFR = target: T1, EGFR (Homo sapiens, UniProt P00533); experiment: EGFR in-cell Western (ICW) screening protocol (EGFR inhibition assay); assay type: cell-based; parameters: ICW 1 / ICW 2 / ICW Avg: unit not given here; settings: for ICW Avg / ICW 1 / ICW 2: ICW assay; for ICW Avg: average of runs 1 and 2; for ICW 1: run 1; for ICW 2: run 2; for ICW assay: Table 10, % Inhibition of EGF dependent EGFR phosphorylation in A431 cells, compound 125 μM in assay
T1 construct: host or cells: A431
T1 sequence (P00533 25-1210): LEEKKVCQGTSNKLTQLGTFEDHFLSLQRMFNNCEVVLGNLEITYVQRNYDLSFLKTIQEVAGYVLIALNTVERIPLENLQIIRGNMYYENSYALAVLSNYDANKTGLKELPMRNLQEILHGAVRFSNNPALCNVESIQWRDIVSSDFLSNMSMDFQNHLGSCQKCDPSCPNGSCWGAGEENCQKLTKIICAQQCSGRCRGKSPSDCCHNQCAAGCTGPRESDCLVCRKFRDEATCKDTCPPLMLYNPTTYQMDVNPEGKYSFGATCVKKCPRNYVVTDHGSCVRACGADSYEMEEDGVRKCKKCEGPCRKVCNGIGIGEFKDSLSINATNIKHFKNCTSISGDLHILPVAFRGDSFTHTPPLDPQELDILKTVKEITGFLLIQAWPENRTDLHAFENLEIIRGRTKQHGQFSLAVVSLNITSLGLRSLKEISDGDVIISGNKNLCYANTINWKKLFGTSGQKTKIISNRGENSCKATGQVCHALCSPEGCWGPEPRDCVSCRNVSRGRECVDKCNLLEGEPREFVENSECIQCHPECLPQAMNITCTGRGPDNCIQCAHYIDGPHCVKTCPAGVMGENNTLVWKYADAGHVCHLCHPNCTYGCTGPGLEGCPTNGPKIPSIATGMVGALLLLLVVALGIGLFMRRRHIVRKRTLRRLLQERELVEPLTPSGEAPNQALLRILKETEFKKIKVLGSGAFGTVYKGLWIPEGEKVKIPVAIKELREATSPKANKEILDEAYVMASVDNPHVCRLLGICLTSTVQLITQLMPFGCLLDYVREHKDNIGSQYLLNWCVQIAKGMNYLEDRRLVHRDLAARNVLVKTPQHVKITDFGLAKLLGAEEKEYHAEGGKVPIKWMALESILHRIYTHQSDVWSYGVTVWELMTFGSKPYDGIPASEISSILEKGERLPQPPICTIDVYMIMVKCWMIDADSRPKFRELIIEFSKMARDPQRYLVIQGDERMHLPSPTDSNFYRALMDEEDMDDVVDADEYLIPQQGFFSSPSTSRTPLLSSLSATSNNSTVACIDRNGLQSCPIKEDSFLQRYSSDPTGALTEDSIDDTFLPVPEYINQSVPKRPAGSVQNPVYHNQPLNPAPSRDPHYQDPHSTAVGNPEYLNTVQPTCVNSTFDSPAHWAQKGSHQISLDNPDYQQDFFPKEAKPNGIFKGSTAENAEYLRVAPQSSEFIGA
Method in brief: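 Serum-starved A431 cells (2 h) were pretreated with compound for 4 h at 37° C, then stimulated with EGF (10 ng/ml final, or 6.6 or 12.5 ng/ml in some runs) for 10 min. After formaldehyde fixation, phospho-EGFR (Tyr1173, or Tyr1045 in some runs) and total EGFR were detected by in-cell Western immunostaining.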

[1] = test system: epithelial carcinoma A431 cell line; experiment: MTT Cell Proliferation Assay, A431 cells; assay type: cell-based; settings: for MTT Assay IC50(A431/MDBK): ratio in parentheses: ratio MDBK IC50 / A431 IC50 (selectivity)
Method in brief: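 Viability was measured by mitochondrial MTT reduction after cells were exposed to compound for 3 days in reduced-serum medium. Inhibition was calculated per plate against 0.5% DMSO controls.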

MDBK line = experiment: MTT Cell Proliferation Assay, MDBK cells; assay type: cell-based, bovine
From the text: The following example describes the MTT Cell Proliferation Assay.
The MTT Cell Proliferation Assay is a colorimetric assay system that measures the reduction of the tetrazolium salt MTT (3-(4,5-dimethylthiazol-2-yl)-2,5-diphenyltetrazolium bromide) into insoluble formazan crystals, produced by the mitochondria of viable cells. […] The color can then be quantified by spectrophotometric means. Among the applications for the method are drug sensitivity, cytotoxicity, response to growth factors, and cell activation. The reduction of tetrazolium salts is now recognized as a safe, accurate alternative to radiometric testing.
Two replicates on each cell plate and 2 duplicate plates gave 4 individual replicates of each concentration, in each cell line. Concentrations were diluted in 100% DMSO from 25 mM stocks.
Twelve 96 well plates of each cell line were plated. Plating was done by dislodging cells as in passage protocol, counting on a hemocytometer, re-suspending in standard growth media, and plating using a multichannel pippetor.
16 μl of 25 mM stock+34 μl DMSO=8 mM starting concentrations, and serial diluted as with test compounds in same plate. […] Two replicates of each concentrations was run on each cell plate. All compound addition and cell treatments were done using aseptic technique under a laminar flow aseptic hood.
Control: 0.5% DMSO in treatment media was used as the control.
MTT dye (Thiazolyl Blue Tetrazolium Bromide, Sigma cat #M5655) stock was prepared in bulk and stored at 4° C. for use: 5 mgs/ml sterile PDS, shielded from light. 4 ul of this stock per 100 uls treatment media per well was used.
Plates were incubated overnight prior to treatment, with treatment day=Day 0. Compound treatments were prepared prior to washing cells to minimize time cells were dry at room temperature after final aspiration. Compounds were diluted in 100% DMSO in 96 well polypropylene plates: 40 μl 25 mM stock+10 μl DMSO=20 mM; 20 μl of 20 mM+30 μl DMSO=8 mM; 20 μl of 8 mM+30 μl DMSO=3.2 mM; 20 μl of 3.2 mM+30 μl DMSO=1.3 mM; 20 μl of 1.3 mM+30 μl DMSO=0.51 mM.
5.0 μl/ml were added to treatment media, in sterile, 2.2 ml deep well plates=0.5% dmso final. Ten μl of each dmso concentration was added to 2.0 ml of treatment media and then mixed using a 1200 μl multichannel pipettor. Cell plates were treated from the deep well plates. Treatment media was standard growth media containing 0.5% FBS and standard additions. This reduced FBS concentration allowed for a slower growth rate in cells.
Media was aspirated from cell plates, and washed with 200 μl/well sterile PBS. Aspirated PBS wash, and cell plates were treated with 200 μl of compound/treatment media per well, and incubated at 37° C., 5% CO2 for 3 days.
Prior to harvesting, visual observations were made under an inverted microscope. Plates were harvested by: aspirating the growth media; adding back MTT dye/100 μl treatment media; and incubating plates at 37° C. for 1 hour. MTT dye was aspirated. 100 μl/well dmso was added, and then shaken on a Bellco plate shaker for 5 minutes, at 4.5 setting.
Plates were read in a Tecan Sunrize UV plate reader, at 560 nm. Settings: Read mode, Outside Normal 2 sec; Shake settle time 3 sec. Data is reported as % inhibition, calculated for individual plates using control values from that plate.

[2] = Homo sapiens, A-431, A431 cells, first value of cell, read-out: MTT Assay IC50(A431/MDBK): A431
[3] = Bos taurus, MDBK, MDBK cells, second value of cell, read-out: MTT Assay IC50(A431/MDBK): MDBK
[4] = Homo sapiens, A-431, 72 h, Table 10, first of x/y(ratio): A431, three day treatment, unit not printed (doses in μM), read-out: MTT assay (first value)
[5] = Bos taurus, MDBK, 72 h, Table 10, second of x/y(ratio): MDBK, three day treatment, unit not printed (doses in μM), read-out: MTT assay (second value)
[6] = Homo sapiens, A-431, first value of 'a/b (c)', taken as A431 cells, read-out: MTT Screen, first value of cell
[7] = Bos taurus, MDBK, second value of 'a/b (c)', taken as MDBK cells, read-out: MTT Screen, second value of cell
[8] = A431 cells, first value of cell, read-out: MTT Assay IC50(A431/MDBK): A431
[9] = second value of 'a/b (c)', taken as MDBK cells, read-out: MTT Screen, second value of cell

Structure (SMILES)	ICW Avg (EGFR)	ICW 1 (EGFR)	ICW 2 (EGFR)	IC50 [1, 2] [µM]	MTT Assay IC50(A431/MDBK): ratio in parentheses [1]	IC50 (MDBK line; [3]) [µM]	ICW Screen (ICW Inhibition) (EGFR)	IC50 [1, 6] [µM]	IC50 (MDBK line; [7]) [µM]	also measured
Cc1ccc2nc(Nc3nc(CCC(C)C)cc(=O)[nH]3)nc(C)c2c1 [11795 + TFA]	33.52	35.23	31.81	26.8	0.48	12.9	–	–	–	–
Cc1cc(C)c(NS(=O)(=O)c2ccc(NC(=S)Nc3ccccc3F)cc2)c(C)c1 [AD4-12395]	–	–	–	–	–	–	–	–	–	ICW assay (EGFR): 57.5206; IC50 [1, 4]: 7.92 µM; IC50 (MDBK line; [5]): 6.96 µM
Cc1ccc(NS(=O)(=O)c2ccc(NC(=S)NC(=O)CC(C)C)cc2)cc1C [AD4-12024]	–	–	–	–	–	–	31.244	6.77	6.34	–
O=S(=O)(Nc1cc(Cl)cc(Cl)c1)c1ccc(NC(=S)Nc2ccc(Cl)c(Cl)c2)cc1 [AD4-12528]	–	–	–	–	–	–	–	–	–	ICW assay (EGFR): 123.946; IC50 [1, 4]: 5.43 µM; IC50 (MDBK line; [5]): 5.3 µM
CC1CCN(S(=O)(=O)c2ccc(NC(=S)NC(=O)C3CC3)cc2)CC1 [AD4-12286]	–	–	–	–	–	–	26.829	15.5	29.9	–
COc1ccc2c(C)nc(Nc3nc(C)cc(-c4ccccc4)n3)nc2c1 [compound 12676]	25.81	28.01	23.61	12.9	1.45	18.8	–	–	–	–
COc1cccc(-c2cc(=O)[nH]c(Nc3nc(C)c4cccc(OC)c4n3)n2)c1 [11513 + TFA]	33.45	32.64	34.26	6.73	0.94	6.32	–	–	–	–
COc1cccc2c(C)nc(Nc3nc(C)cc(=O)[nH]3)nc12 [11772 + TFA]	77.09	80.68	73.50	9.75	0.93	9.04	–	–	–	–
Cc1ccc(NC(=S)Nc2ccc(S(=O)(=O)Nc3cc(Cl)cc(Cl)c3)cc2)cc1 [AD4-12460]	–	–	–	–	–	–	–	–	–	ICW assay (EGFR): 42.5115; IC50 [1, 4]: 6.33 µM; IC50 (MDBK line; [5]): 5.61 µM
Cc1cc(Cl)ccc1OCC(=O)NC(=S)Nc1ccc(S(=O)(=O)N2CCCCC2)cc1 [AD4-11402]	–	–	–	–	–	–	33.635	11.8	17.4	–
COc1ccccc1/C=C/C(=O)NC(=S)Nc1ccc(S(=O)(=O)N2CCN(C)CC2)cc1 [AD4-12265]	–	–	–	–	–	–	31.19	38.1	35.1	–
CCCc1cc(=O)[nH]c(Nc2nc(C)c3cc(C)c(C)cc3n2)n1 [12654 + TFA]	36.07	37.92	34.22	–	0.79	12.6	–	–	–	IC50 [1, 8]: 16 µM
Cc1ccc(NS(=O)(=O)c2ccc(NC(=S)NC(=O)C3CCCCC3)cc2)cc1C [AD4-10708]	–	–	–	–	–	–	37.233	16.6	35.9	–
COc1cc(NS(=O)(=O)c2ccc(NC(=S)NC(=O)/C=C/c3ccccc3)cc2)nc(OC)n1 [AD4-11369]	–	–	–	–	–	–	43.546	48.6	–	IC50 (MDBK line; [9]): 47.2 µM
COc1cccc2c(C)nc(Nc3nc(-c4ccc(F)cc4)cc(=O)[nH]3)nc12 [compound 12620]	33.01	32.26	33.77	–	1.03	–	–	–	–	IC50 [1, 8]: 5.17 µM; IC50 (MDBK line; MDBK cells, second value of cell, read-out: MTT Assay IC50(A431/MDBK): MDBK): 5.3 µM
CCCCc1c(C)nc(Nc2nc(C)c3cc(C)ccc3n2)[nH]c1=O [compound 11498]	49.32	42.15	56.48	5.39	–	8.77	–	–	–	–
CCOC(=O)CCC(=O)NC(=S)Nc1ccc(S(=O)(=O)Nc2cc(OC)nc(OC)n2)cc1 [AD4-11980]	–	–	–	–	–	–	25.235	49.8	24.4	–
COc1ccc(CC(=O)NC(=S)Nc2ccc(S(=O)(=O)Nc3ccc(C)c(C)c3)cc2)cc1 [AD4-11418]	–	–	–	–	–	–	34.067	11.9	10.2	–
CCC(C)c1ccc(NC(=S)Nc2ccc(S(=O)(=O)Nc3ccc(OC)cc3)cc2)cc1 (centres unmarked) [AD4-12468]	–	–	–	–	–	–	–	–	–	ICW assay (EGFR): 77.7928; IC50 [1, 4]: 4.04 µM; IC50 (MDBK line; [5]): 5.41 µM
O=S(=O)(Nc1ccccc1)c1ccc(NC(=S)Nc2ccc(Cl)cc2Cl)cc1 [AD4-12822]	–	–	–	–	–	–	–	–	–	ICW assay (EGFR): 51.4082; IC50 [1, 4]: 6.92 µM; IC50 (MDBK line; [5]): 7.04 µM
Cc1ccc2nc(Nc3nc(C(C)C)cc(=O)[nH]3)nc(C)c2c1 [12741 + TFA]	33.57	42.10	25.04	63.2	0.44	28	–	–	–	–
Cc1ccc2c(C)nc(Nc3nc(CSc4nnc(C)s4)cc(=O)[nH]3)nc2c1 [compound 11469]	25.25	26.79	23.71	10.1	1.13	11.5	–	–	–	–
Cc1cc(NS(=O)(=O)c2ccc(NC(=S)NC(=O)/C=C/c3ccccc3)cc2)no1 [AD4-11885]	–	–	–	–	–	–	32.38	–	–	IC50 ([1]; first value of 'a/b (c)', taken as A431 cells, read-out: MTT Screen, first value of cell): 37.8 µM; IC50 (MDBK line; [9]): 48.3 µM
